PubChem BioAssay AID1963858 (Molecular Pharmacology Branch, DTP, NCI, 2024)

System: HOP-62 multicell spheroids with HUVEC/MSC, viability
Assay: Anticancer human tumor HOP-62 cell line growth inhibition [KRAS2];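 also: viability read after a week of compound exposure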;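 as to viability, T/C: 100% = DMSO vehicle-treated spheroids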
Settings: for IC50: curve of first compound; for viability, T/C: stronger effect = lower value
Text: Multicellular complex tumor spheroid response to RAS pathway inhibitors in combination with a targeted agents in patient-derived cell lines with oncogenic KRAS variants from multiple cancer types
A high-throughput screen of multi-cell type tumor spheroids was designed to identify active combinations of targeted small molecules and KRAS pathway inhibitors. Complex spheroids include a stromal component modeled by human endothelial cells (HUVEC) and fibroblasts modeled by human mesenchymal stem cells (MSCs). The concentration ranges selected for each drug and investigational agent were based upon clinically achievable concentrations if the clinical Cmax of the agent was known.
Compounds. The drugs and investigational agents: BI-3406 (NSC825286), BAY-293 (NSC824723), batoprotafib (TNO155; NSC825523), sotorasib (AMG 510; NSC818433), MRTX1257 (NSC819558), elimusertib (BAY 1895344; NSC800525), molibresib (GSK525762; NSC774829), temuterkib (LY3214996; NSC803410), venetoclax (NSC766270), alisertib (NSC759677), olaparib (NSC753686), talazoparib (NSC767125), erdafitinib (NSC781556), ipatasertib (NSC767898), cabozantinib (NSC761068), nintedanib (NSC756659), abemaciclib (NSC768073), docetaxel (NSC628503), trametinib (NSC758246), and sapanisertib (NSC764658) were obtained from the National Cancer Institute (NCI) Developmental Therapeutics Program Chemical Repository. The FDA-approved anticancer drug set is available from the Developmental Therapeutics Program. […] The stock solutions were prepared in dimethyl sulfoxide (DMSO, Sigma-Aldrich, St. Louis, MO, cat. D2650) at 800-fold the tested concentration and stored at -70 degrees C prior to their use. All drugs and investigational agents were tested over a range starting from a high concentration at or near the clinical Cmax and decreasing in half-log increments. If the clinical Cmax for an agent had not been determined, the highest concentration tested was 10 microM.
Cell Culture. All cells were maintained in an incubator at 37 degrees C and 5% CO2 with 95% humidity. The PDC lines were cultured according to standard operating procedures established by the NCI PDMR (https://pdmr.cancer.gov/sops/default.htm). Briefly, all PDCs were thawed and cultured in Matrigel-coated flasks prepared with a working solution of 1X Ham's F-12 nutrient mix, without supplementation (Invitrogen, Waltham, MA, cat. 11765054), 100 U/mL penicillin-streptomycin (Invitrogen, cat. 15140122), and 2.5% Matrigel (Corning Inc., Corning, NY, cat. 354248) for the first three passages. All PDCs were cultured in complete DMEM/F-12 media containing advanced DMEM/F-12 (Invitrogen, cat. 12634028), 4.9% defined fetal bovine serum, heat inactivated (HyClone Laboratories Inc., Logan, UT, cat. SH30070.03HI), 389 ng/mL hydrocortisone (Sigma-Aldrich, cat. H4001), 9.7 ng/mL human EGF recombinant protein (Invitrogen, cat. PHG0313), 23.4 microg/mL adenine (Sigma-Aldrich, cat. A2786), 97.3 U/mL penicillin-streptomycin (Invitrogen, cat. 15140122), 1.9 mM L-glutamine (Invitrogen, cat. 25030081), and 9.7 microM Y-27632 dihydrochloride (Tocris Bioscience, Bristol, United Kingdom, cat. 1254). The PDCs were cultured in complete DMEM/F12 media without 9.7 microM Y-27632 dihydrochloride for at least two passages prior to the screen. The established cell line HOP-62 was cultured in RPMI 1640 medium, HEPES (Invitrogen, cat. 22400105) with 10% defined fetal bovine serum (HyClone Laboratories Inc., cat. SH30070.03) and 2 mM L-glutamine (Invitrogen, cat. 25030081). The pooled donor HUVEC were cultured in endothelial cell growth medium 2 (PromoCell, Heidelberg, Germany, cat. C-22011) and the hMSC were cultured in mesenchymal stem cell growth medium 2 (PromoCell, cat. C-28009). For all experiments, HUVEC and hMSC were used at passages </=5, while the malignant cell lines were used at passages </=15. […]

[1] = second compound 0.1 µM, first compound 0.0316 µM
[2] = second compound 0.1 µM, first compound 0.1 µM
[3] = second compound 0.1 µM, first compound 0.316 µM
[4] = second compound 0.1 µM, first compound 1 µM
[5] = second compound 0.1 µM, first compound 3.16 µM
[6] = second compound 0.1 µM, first compound 10 µM
[7] = second compound 0.316 µM, first compound 0.0316 µM
[8] = second compound 0.316 µM, first compound 0.1 µM
[9] = second compound 0.316 µM, first compound 0.316 µM
[10] = second compound 0.316 µM, first compound 1 µM
[11] = second compound 0.316 µM, first compound 3.16 µM
[12] = second compound 0.316 µM, first compound 10 µM
[13] = second compound 1 µM, first compound 0.0316 µM
[14] = second compound 1 µM, first compound 0.1 µM
[15] = second compound 1 µM, first compound 0.316 µM
[16] = second compound 1 µM, first compound 1 µM
[17] = second compound 1 µM, first compound 3.16 µM
[18] = second compound 1 µM, first compound 10 µM
[19] = second compound 3.16 µM, first compound 0.0316 µM
[20] = second compound 3.16 µM, first compound 0.1 µM
[21] = second compound 3.16 µM, first compound 0.316 µM
[22] = second compound 3.16 µM, first compound 1 µM
[23] = second compound 3.16 µM, first compound 3.16 µM
[24] = second compound 3.16 µM, first compound 10 µM
[25] = second compound 10 µM, first compound 0.0316 µM
[26] = second compound 10 µM, first compound 0.1 µM
[27] = second compound 10 µM, first compound 0.316 µM
[28] = second compound 10 µM, first compound 1 µM
[29] = second compound 10 µM, first compound 3.16 µM
[30] = second compound 10 µM, first compound 10 µM
[31] = second compound 0.1 µM, first compound 0.000316 µM
[32] = second compound 0.1 µM, first compound 0.001 µM
[33] = second compound 0.1 µM, first compound 0.00316 µM
[34] = second compound 0.1 µM, first compound 0.01 µM
[35] = second compound 0.316 µM, first compound 0.000316 µM
[36] = second compound 0.316 µM, first compound 0.001 µM
[37] = second compound 0.316 µM, first compound 0.00316 µM
[38] = second compound 0.316 µM, first compound 0.01 µM
[39] = second compound 1 µM, first compound 0.000316 µM
[40] = second compound 1 µM, first compound 0.001 µM
[41] = second compound 1 µM, first compound 0.00316 µM
[42] = second compound 1 µM, first compound 0.01 µM
[43] = second compound 3.16 µM, first compound 0.000316 µM
[44] = second compound 3.16 µM, first compound 0.001 µM
[45] = second compound 3.16 µM, first compound 0.00316 µM
[46] = second compound 3.16 µM, first compound 0.01 µM
[47] = second compound 10 µM, first compound 0.000316 µM
[48] = second compound 10 µM, first compound 0.001 µM
[49] = second compound 10 µM, first compound 0.00316 µM
[50] = second compound 10 µM, first compound 0.01 µM

SMILES | IC50 (second compound 0.1 µM) | IC50 (second compound 0.316 µM) | IC50 (second compound 1 µM) | IC50 (second compound 3.16 µM) | IC50 (second compound 10 µM) | viability, T/C [1] | viability, T/C [2] | viability, T/C [3] | viability, T/C [4] | viability, T/C [5] | viability, T/C [6] | viability, T/C [7] | viability, T/C [8] | viability, T/C [9] | viability, T/C [13] | viability, T/C [14] | viability, T/C [19] | viability, T/C [20] | viability, T/C [25] | viability, T/C [26] | further results
CC(C)NCC(C(=O)N1CCN(c2ncnc3c2C(C)CC3O)CC1)c1ccc(Cl)cc1 (stereo not given) + C=CC(=O)N1CCN(c2nc(=O)n(-c3c(C)ccnc3C(C)C)c3nc(-c4c(O)cccc4F)c(F)cc23)C(C)C1 | 69.2 nM | 70 nM | 88.9 nM | 110 nM | < 31.6 nM | 60.9% | 45.3% | 22.2% | 12.4% | 7.1% | 5.4% | 53.8% | 49.1% | 28.2% | 57.2% | 49.6% | 55.7% | 51% | 43.3% | 28.1% | viability, T/C [10]: 12.9%; viability, T/C [11]: 6.09%; viability, T/C [12]: 5.39%; viability, T/C [15]: 27.2%; viability, T/C [16]: 11.8%; viability, T/C [17]: 6.8%; viability, T/C [18]: 5.57%; viability, T/C [21]: 36.3%; viability, T/C [22]: 15.1%; viability, T/C [23]: 7.34%; viability, T/C [24]: 4.5%; viability, T/C [27]: 19.5%; viability, T/C [28]: 12.8%; viability, T/C [29]: 8.3%; viability, T/C [30]: 5.28%
CC(C)n1nc(-c2ccc3oc(N)nc3c2)c2c(N)ncnc21 + C=CC(=O)N1CCN(c2nc(=O)n(-c3c(C)ccnc3C(C)C)c3nc(-c4c(O)cccc4F)c(F)cc23)C(C)C1 | < 0.316 nM | 0.36 nM | 0.592 nM | 0.671 nM | < 0.316 nM | 10.2% | 8.15% | – | – | – | – | 11.4% | 8.53% | – | 11% | 8.43% | 12.4% | 8.73% | 11.8% | 9.42% | viability, T/C [31]: 42.3%; viability, T/C [32]: 33.4%; viability, T/C [33]: 19.2%; viability, T/C [34]: 15.4%; viability, T/C [35]: 51.1%; viability, T/C [36]: 41%; viability, T/C [37]: 25.3%; viability, T/C [38]: 14.2%; viability, T/C [39]: 62.8%; viability, T/C [40]: 38.9%; viability, T/C [41]: 25.5%; viability, T/C [42]: 15.3%; viability, T/C [43]: 60.2%; viability, T/C [44]: 43.8%; viability, T/C [45]: 31.9%; viability, T/C [46]: 18.6%; viability, T/C [47]: 36.9%; viability, T/C [48]: 28.8%; viability, T/C [49]: 25%; viability, T/C [50]: 16.2%
CC1(C)CCC(CN2CCN(c3ccc(C(=O)NS(=O)(=O)c4ccc(NCC5CCOCC5)c([N+](=O)[O-])c4)c(Oc4cnc5[nH]ccc5c4)c3)CC2)=C(c2ccc(Cl)cc2)C1 + C=CC(=O)N1CCN(c2nc(=O)n(-c3c(C)ccnc3C(C)C)c3nc(-c4c(O)cccc4F)c(F)cc23)C(C)C1 | < 31.6 nM | 2160 nM | 2010 nM | 3670 nM | < 31.6 nM | 46.2% | 49.4% | 50.5% | 43.1% | 39.1% | 12.1% | 53.4% | 51.9% | 57.7% | 55% | 57.1% | 64.9% | 58.9% | 43.7% | 46.5% | viability, T/C [10]: 56.2%; viability, T/C [11]: 47.1%; viability, T/C [12]: 20.5%; viability, T/C [15]: 50.8%; viability, T/C [16]: 52.6%; viability, T/C [17]: 48%; viability, T/C [18]: 13%; viability, T/C [21]: 48.7%; viability, T/C [22]: 54.4%; viability, T/C [23]: 55.7%; viability, T/C [24]: 12.2%; viability, T/C [27]: 41.4%; viability, T/C [28]: 41.5%; viability, T/C [29]: 32%; viability, T/C [30]: 16.2%
Cn1ncnc1[C@H]1c2n[nH]c(=O)c3cc(F)cc(c23)N[C@@H]1c1ccc(F)cc1 + C=CC(=O)N1CCN(c2nc(=O)n(-c3c(C)ccnc3C(C)C)c3nc(-c4c(O)cccc4F)c(F)cc23)C(C)C1 | 23.3 nM | 13.5 nM | > 100 nM | > 100 nM | < 0.316 nM | 46.8% | 43.5% | – | – | – | – | 41.5% | 41.5% | – | 61% | 59.4% | 52.9% | 49% | 38% | 33.9% | viability, T/C [31]: 64.7%; viability, T/C [32]: 68.3%; viability, T/C [33]: 51.5%; viability, T/C [34]: 58.3%; viability, T/C [35]: 68.5%; viability, T/C [36]: 69.2%; viability, T/C [37]: 53%; viability, T/C [38]: 56.1%; viability, T/C [39]: 61.9%; viability, T/C [40]: 63.8%; viability, T/C [41]: 63%; viability, T/C [42]: 54.4%; viability, T/C [43]: 66.6%; viability, T/C [44]: 64.3%; viability, T/C [45]: 57%; viability, T/C [46]: 66.9%; viability, T/C [47]: 40.1%; viability, T/C [48]: 46.6%; viability, T/C [49]: 42.9%; viability, T/C [50]: 36.4%
